These results are taken from patent US20060052627A1, “Novel modulators of the PPAR-type receptors and cosmetic/pharmaceutical compositions comprised thereof” (GALDERMA RESEARCH & DEVELOPMENT, S.N.C., priority 2003, published 2006).

Holding throughout (type): cell-based
One test has as its target T1, PPARα (Homo sapiens, UniProt Q07869).
T1 sequence (Q07869 200-468 limits assumed): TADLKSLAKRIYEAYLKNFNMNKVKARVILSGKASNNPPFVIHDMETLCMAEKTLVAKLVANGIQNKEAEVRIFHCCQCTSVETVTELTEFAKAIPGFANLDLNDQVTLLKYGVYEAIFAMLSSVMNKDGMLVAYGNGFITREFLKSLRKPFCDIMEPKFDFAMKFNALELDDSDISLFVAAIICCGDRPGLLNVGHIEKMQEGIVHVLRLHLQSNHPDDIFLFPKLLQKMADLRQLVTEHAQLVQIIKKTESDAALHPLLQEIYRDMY
The test is described as follows: Cross-curve PPAR transactivation test (luciferase reporter, HeLN cells), PPARα. To be noted: HeLN cells stably transfected with Gal-hPPARα; apparent Kd by Schild regression against reference agonist; n.a. means not active; read-out: PPAR alpha Kd app. On the procedure:
(§1) This activity on the PPARα, δ and γ receptors is measured in a transactivation test and quantified by the dissociation constant Kdapp (apparent), as described in Example 142.
(§2) The activation of receptors with an agonist (activator) in HeLN cells leads to the expression of a reporter gene, luciferase, which, in the presence of a substrate, generates light. The modulation of the receptors is measured as quantity of luminescence produced after incubating the cells in the presence of a reference agonist. The ligands will displace the agonist from its site. The measurement of the activity is performed by quantification of the light produced. This measurement makes it possible to determine the modulatory activity of the compounds according to the invention by determining the constant which is the affinity of the molecule for the receptor. […]
(§3) The various dilutions of the test products and of the reference ligand are added in an amount of 5 [I per well. […] After 5 minutes, the plates are read by the luminescence reader.
(§4) These AC50 values are used to calculate the Schild regression by plotting a straight line corresponding to the Schild equation (“quantitation in receptor pharmacology” Terry P. Kenakin, Receptors and Channels, 2001, 7, 371-385) which leads to Kd app values being obtained (in nM).
For orientation: Reporter assays use an easily measured gene product as a stand-in for the process of interest.

For another test, the target named is PPARδ (Homo sapiens, UniProt Q03181). The test is described as follows: Cross-curve PPAR transactivation test (luciferase reporter, HeLN cells), PPARδ. The following applies: HeLN cells stably transfected with Gal-hPPARδ; apparent Kd by Schild regression against reference agonist; n.a. means not active; read-out: PPAR delta Kd app. The protocol: as §1, §2, §3, §4
Chain of PPARδ (Q03181 211-441 limits assumed): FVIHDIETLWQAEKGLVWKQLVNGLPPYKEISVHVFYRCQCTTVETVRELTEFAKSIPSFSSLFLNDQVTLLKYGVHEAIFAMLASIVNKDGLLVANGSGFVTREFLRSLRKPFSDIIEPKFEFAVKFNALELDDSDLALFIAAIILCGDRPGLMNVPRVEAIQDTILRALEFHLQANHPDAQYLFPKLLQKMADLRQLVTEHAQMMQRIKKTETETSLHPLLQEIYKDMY

For another test, the target named is T2, PPARγ (Homo sapiens, UniProt P37231).
T2 sequence (P37231 238-505 limits assumed): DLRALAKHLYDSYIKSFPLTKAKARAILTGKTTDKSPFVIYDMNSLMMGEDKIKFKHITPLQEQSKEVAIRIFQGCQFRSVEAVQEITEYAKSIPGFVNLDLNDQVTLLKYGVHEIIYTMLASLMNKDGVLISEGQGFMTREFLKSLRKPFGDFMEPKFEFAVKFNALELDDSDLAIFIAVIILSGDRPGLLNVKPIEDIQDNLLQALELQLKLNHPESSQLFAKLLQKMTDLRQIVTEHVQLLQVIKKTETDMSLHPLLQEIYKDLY
The test is described as follows: Cross-curve PPAR transactivation test (luciferase reporter, HeLN cells), PPARγ. The following applies: HeLN cells stably transfected with Gal-hPPARγ; apparent Kd by Schild regression against reference agonist; n.a. means not active; read-out: PPAR gamma Kd app. On the procedure:
as §1, §2, §3, §4

Each structure is given as a SMILES string.

With `CCCCCCNC(=O)N(CCCc1ccccc1)c1cccc(Sc2ccc(CC(=O)O)cc2)c1` [Example 30b, (4-{3-[3-Hexyl-1-(3-phenylpropyl)ureido]phenylsulfanyl}phenyl)acetic acid], the Kd was determined as 8000 nM on PPARα, 120 nM at PPARδ and 2000 nM on PPARγ.

For the compound `O=C(O)Cc1ccc(Sc2ccc(N(CCc3ccccc3)C(=O)NC3CCCCC3)cc2)cc1` [Example 116b, {4-[4-(3-Cyclohexyl-1-phenethylureido)phenylsulfanyl]phenyl}acetic acid], the Kd at PPARα was determined as 250 nM; on PPARδ, 120 nM; on PPARγ, 500 nM.
